Measurements: US20240415753A1, “DEODORANT COMPOSITIONS COMPRISING CARBOXYLIC ACIDS” (The Procter & Gamble Company, priority 2023, published 2024)

Experiments:
[1] = Surface tension of carboxylic acid at 2 wt % in water (Wilhelmy plate); type: physicochemical; conditions: 2 wt % solution of the carboxylic acid in water; average of 3 samples
Method: Surface tension was measured using surface tension measurement, described herein. […] Surface tension of a sample is calculated as the average of the last 5 measured values. […] The average of the last 5 values is used to calculate surface tension of a sample. Surface Tension is measured by ASTM […]-20 Method C-Surface Tension by […] plate. For accurate measurement, the Surface Tension measurement should be allowed to equilibrate over the course of at least 1 minute, or at least 2 minutes, or longer depending on the sample. Properly equilibrated surface tension measurement is evaluated by not seeing a change in the surface tension measurement across multiple data points at the end of the measurement time period. The sample is run for a longer period of time if the surface tension measurement is continuing to change across multiple data points at the end of the measurement time period. […] The average of the last 5 values collected is used to calculate surface tension of a sample.

[2] = test system: mock community of five underarm species (3 Staphylococcus and 2 Corynebacterium); experiment: MIC of various carboxylic acids (Optical Density MIC 95); type: cell-based; conditions: pH 5, Tryptic Soy Broth, initial concentration 1000 ppm, ~24 hours at 37° C., OD 600 nm
Source text: The following MIC (Minimum Inhibitory Concentration) was done on various carboxylic acids. The MIC is the lowest concentration of active compound at which no growth of the microorganism is observed macroscopically. […] Tryptic Soy Broth is used in the measurements below as a standard diluent for testing MIC. Initial concentration is the highest concentration tested in this experiment. […] The results shown in Table 7 below indicate that carboxylic acids have the ability to inhibit bacteria growth. […] The MIC or minimum inhibitory concentration test determines antimicrobial activity of a material against a specific bacteria. The most commonly employed methods are the tube dilution method and agar dilution method. Test products that are not clear or precipitate the growth media are tested by agar dilution method which is similar to the tube dilution method except dilutions are plated on agar. The tube dilution test is the standard method for determining levels of microbial resistance to an antimicrobial agent. Serial dilutions of the test agent are made in a liquid microbial growth medium which is inoculated with a standardized number of organisms and incubated for a prescribed time. The lowest concentration (highest dilution) of test agent preventing appearance of turbidity (growth) is considered to be the minimal/minimum inhibitory concentration (MIC). At this dilution the test agent is bacteriostatic. […] This measurement is referred to as optical density.

[3] = Surface tension of solvents at 50 wt % in water (Wilhelmy plate); type: physicochemical; conditions: solvent at 50 wt % in water; average of 3 samples
Source text: In addition, carboxylic acids may be used in deodorant compositions that are desired to be clear. For the composition to appear clear, the refractive index of the polar and nonpolar phases may not vary too much. For example, for a clear appearance of a polar in nonpolar emulsion, a significant amount of material with high refractive index, water soluble solvents or emollients (for example glycols, polyethers, diols, glycerin, or mixtures thereof), can be added to the polar phase to match the refractive index of water (1.333) to silicone (1.40). […] Surface tension is measured for mixtures of solvents at 50 wt % in water. Surface tension was measured using the surface tension measurement, as described in the Test Method section herein. Measurement time period was 1 minute with 30 values measured over the measurement time period. Surface tension of a sample is calculated as the average of the last 5 measured values. Each reported value is an average of 3 samples measured.
Surface Tension is measured by ASTM D1331-20 Method C-Surface Tension by Willhelmy plate. […] Properly equilibrated surface tension measurement is evaluated by not seeing a change in the surface tension measurement across multiple data points at the end of the measurement time period. […] A minimum of 30 measured values are collected during the measurement time period. […]

Surface Tension when measured at 2 wt % in Water [1]	Surface Tension when measured at 50 wt % in Water [3]	SMILES	MIC [2]
72.4 mN/m	–	O=C1O[C@H]([C@@H](O)CO)C(O)=C1O [Ascorbic Acid]	–
71.3 mN/m	–	O=C(O)CC(O)(CC(=O)O)C(=O)O [Citric Acid]	–
–	–	O=C(O)/C=C/C(=O)O [Fumaric Acid]	250 µg/mL
–	68.6 mN/m	OCC(O)CO [Glycerin]	–
71.1 mN/m	–	O=C(O)CO [Glycolic Acid]	–
63.7 mN/m	–	CC(O)C(=O)O (centres unmarked) [Lactic Acid]	1000 µg/mL
–	–	O=C(O)/C=C\C(=O)O [Maleic Acid]	1000 µg/mL
71.8 mN/m	–	O=C(O)CC(O)C(=O)O (centres unmarked) [Malic Acid]	500 µg/mL
63.7 mN/m	–	O=C(O)C(O)c1ccccc1 (centres unmarked) [Mandelic Acid]	1000 µg/mL
–	44.6 mN/m	CC(O)CO (centres unmarked) [Propylene Glycol (PG), Propylene Glycol]	–
–	–	O=C(O)c1ccccc1O [Salicylic Acid]	125 µg/mL
69.8 mN/m	–	O=C(O)CCC(=O)O [Succinic Acid]	1000 µg/mL
–	–	O=C(O)C(O)C(O)C(=O)O (centres unmarked) [Tartaric Acid]	250 µg/mL
